# Source: patent US6310090A, “Process and product for enhancing immune response in companion animals using a combination of antioxidants” (priority 2000, dated 2001)
# How the values were obtained:
# [1] = system: PHA (nonspecific antigen); test: delayed type hypersensitivity response (skin induration) to PHA, lutein supplementation; assay type: in vivo, dog (Beagle)
# Method: (§1) Skin induration response was assessed in all dogs on weeks 0, 6, and 12. Dogs were injected intradermally in the flank area with saline (8.5 g/L; control), an attenuated polyvalent vaccine containing canine distemper virus, canine adenovirus type-2, canine parainfluenza virus and parvovirus (Vanguard 5, Smithkline Beacham, West Chester, Pa.; specific antigen), and PHA (0.5 g/L; nonspecific antigen). The doses of vaccine and PHA used were previously determined to provide optimal skin response in Beagle dogs of similar age. The injection site was clipped and wiped with 70% ethyl alcohol. The injection volume was 100 μL. Skin induration was measured at 0, 24, 48 and 72 h post-injection with the aid of a pressure-sensitive digital micrometer (Mitsutoyo, Tokyo, Japan) and response was expressed as a percentage of skin thickness measured at 0 h.
# mouse splenocytes = conditions: dietary lutein; cited from earlier work
# [2] = system: peripheral blood mononuclear cells (PBMC); test: mitogen-induced PBMC proliferation, lutein supplementation; assay type: cell-based, dog (Beagle)
# Method: Blood collected on weeks 0, 2, 4, 8 and 12 were used to assess mitogen-induced lymphocyte proliferation by peripheral blood mononuclear cells (PBMC). Whole blood culture was used in order to mimic in vivo conditions. Mitogens used were phytohemagglutinin (PHA), concanavalin A (Con A) and pokeweed mitogen (PWM). Whole blood was thoroughly mixed and then diluted 1:12 with RPMI-1640 containing 25 mM of Hepes, penicillin (100 U/mL) and streptomycin (100 μg/mL) (Sigma, St. Louis, Mo.). […] Triplicate 150 μL volumes were pipetted into 96-well round bottom plates and 50 μl of the appropriate mitogens added. The final concentrations of the mitogens in culture were 2 and 10 μg/mL for PHA, 1 and 5 μg/mL for Con A and 0.5 and 2.5 μg/mL for PWM. The two mitogen concentrations gave maximum (the higher mitogen concentration) and suboptimal (lower mitogen concentration) proliferative responses in preliminary studies using blood from similar animals. The mixture was incubated for 72 h at 37° C. in a humidified incubator under a 5% CO2 atmosphere. Four hours prior to the termination of the incubation period, 20 μL of [^3 H]-thymidine (1 [μCi/well) were added. Cells were harvested onto fiberglass filters and radioactivity was counted by liquid scintillation. Proliferation response of PBMC was expressed as stimulation index (cpm of stimulated cultures/cpm of unstimulated cultures).
# CD5+ total T cells = test: lymphocyte subsets by flow cytometry, lutein supplementation; assay type: cell-based, dog (Beagle); conditions: weeks 4 and 8, dogs fed lutein
# Method: (§3) Fifty six female Beagle dogs (17 to 18 months old; average body weight 11.4±0.4 kg) were randomly assigned to be supplemented daily with 0, 5, 10 or 20 mg lutein for 17 weeks. The lutein contained 76.66% lutein and 5.23% zeaxanthin. The lutein supplement was resuspended in soybean oil to the appropriate concentration and 1 mL administered perorally at 0800 h daily. Food (200 g/dog/d) was offered immediately after the lutein supplementation. […] All dogs were housed in 2×2 m pens (2 dogs/pen) in a temperature (20 to 22° C.) and light (14 h light) controlled facility. Body weight was recorded at weeks 0, 6, and 12.
# (§4) Blood was collected by jugular venipuncture into heparinized evacuated tubes on weeks 0, 2, 4, 8 and 12 and aliquots used for HPLC analysis and for assessing immune responses.
# (§5) Blood leukocytes were separated using Histopaque-1119 (Sigma, St. Louis, Mo.). Cells were washed three times with phosphate-buffered saline (PBS, pH 7.4) and contaminating erythrocytes were lysed in NH4 CI (8.4 g/L). Lymphocyte subsets were determined by flow cytometry (FACScan, Becton Dickinson, San Jose, Calif.). […]
# (§6) Appropriate negative controls were included to correct for background fluorescence. Data were expressed as the percentage of positive-staining cells corrected for cells stained nonspecifically with the secondary antibody.
# immune system = test: summary of the results from each of the studies (Table 1); assay type: in vivo, dog
# IgM = IgM by single radial immunodiffusion, lutein supplementation; assay type: in vivo, dog (canine); conditions: after revaccination on week 15
# Method: (§2) Serum collected on weeks 0, 2, 4, 8 and 12 were analyzed for IgG and IgM concentrations by single radial immunodiffusion (SRID). In addition, all dogs were vaccinated with the polyvalent vaccine (Vanguard 5, Smithkline Beacham, West Chester, Pa.) on week 13 and again on week 15 to study the possible anamnestic effect of dietary lutein. Blood was collected weekly from week 13 through week 17. Goat antiserum to canine IgG (10%, whole molecule) or IgM (7.5%, μ chain specific) (ICN, Aurora, Ohio) was mixed with melted agarose (10 g/L in PBS; Sigma Chem. Co., St. Louis, Mo.) and the mixture solidified in SRID plates. Duplicate 5 μL volumes of serum or IgG (0, 2.88, 5.75, 11.5 and 23.0 mg/ml) or IgM (0, 0.25, 0.5, 1.0 and 2.0 mg/ml) standard were loaded into the wells. After incubating for 24 hours at room temperature in a humidified chamber, ring diameters were measured using a SRID reader (Transidyne General Corp., Ann Arbor, Minn.).
# [3] = system: canine thyroid adenocarcinoma cells
# Method: Fifty six female Beagle dogs (17 to 18 months old; average body weight 11.4±0.4 kg) were randomly assigned to be supplemented daily with 0, 5, 10 or 20 mg lutein for 17 weeks. The lutein contained 76.66% lutein and 5.23% zeaxanthin. The lutein supplement was resuspended in soybean oil to the appropriate concentration and 1 mL administered perorally at 0800 h daily. Food (200 g/dog/d) was offered immediately after the lutein supplementation. The basal diet met or exceeded the requirements for all essential nutrients (NRC 1985). All dogs were housed in 2×2 m pens (2 dogs/pen) in a temperature (20 to 22° C.) and light (14 h light) controlled facility. Body weight was recorded at weeks 0, 6, and 12.
# as §4
# Canine thyroid adenocarcinoma cells were used as target cells in assessing NK cell cytotoxic activity. […] Target cells were cultured in a T75 flask with 20 mL minimum essential medium (MEM; Sigma Chem. Co., St. Louis, Mo.) supplemented with 10% fetal calf serum (FC S), 100 U/mL of penicillin and 100 μg/mL of streptomycin. […] Optical density was measured at 570 nm using a microplate reader. The percentage of NK cell-specific lysis was calculated as follows: […]
# CD4+ T-helper cells = test: lymphocyte subsets by flow cytometry, lutein supplementation; assay type: cell-based, dog (Beagle); conditions: 5 and 10 mg lutein, week 12
# Method: as §3, §4, §5, §6
# [4] = system: polyvalent vaccine (specific antigen); test: delayed type hypersensitivity response to vaccine / vaccine recognition, lutein supplementation; assay type: in vivo, dog (Beagle)
# Method: as §1
# [5] = system: plasma lipid peroxidation (malondialdehyde); test: plasma lipid peroxidation (TBARS) assay, lutein supplementation; assay type: in vivo, dog (Beagle)
# Method: Plasma lipid peroxidation activity was determined by measuring malondialdehyde (MDA) production. The standard used was 1,1,3,3-tetramethoxypropane JMP) (Sigma Chem. Co., St. Louis, Mo.). Duplicate 500 μL plasma samples were pipetted into 15 ml, glass tubes and 3 mL of 10 g/L phosphoric acid and 1 ml of 6 g/L TBA solution were added. The mixture was boiled in a water bath for 45 minutes. Tubes were allowed to cool and the TBA-MDA complex was extracted with 4 ml of n-butanol. The butanol layer was separated by centrifugation at 1,000×g for 10 minutes and absorbance was measured on at 532 nm (Beckman, Fullerton, Calif.). The TBARS activity was expressed in nmole MDA/L plasma.
# [6] = system: MHC class II expressing lymphocytes; test: lymphocyte subsets by flow cytometry, lutein supplementation; assay type: cell-based, dog (Beagle); conditions: 20 mg lutein, week 8 and 12
# Method: as §3, §4, §5, §6
# IgG = IgG by single radial immunodiffusion, lutein supplementation; assay type: in vivo, dog (canine)
# Method: as §2
# CD21+ B cells = test: lymphocyte subsets by flow cytometry, lutein supplementation; assay type: cell-based, dog (Beagle); conditions: dietary lutein
# Method: as §3, §4, §5, §6
# IL-2 = IL-2 production by PHA-stimulated PBMC in whole blood cultures, lutein supplementation; assay type: cell-based, dog (canine)
# Method: Whole blood was diluted 1:2 with RPMI-1640 supplemented with Hepes and antibiotics (described earlier) and 400 μL of diluted blood were pipetted into 48-well plates (Costar, Cambridge, Mass.). Cells were stimulated with PHA (400 μL of a 5 μg/mL solution) for 48 hours at […] in a 5% CO2 atmosphere. The plates were centrifuged at 200×g for 10 minutes and the supernatant was frozen at -80° C. The IL-2 content of the culture supernatant was determined in triplicate by ELISA (Intergen, Purchase, N.Y.). The polyclonal anti-human IL-2 cross-reacted with canine IL-2 and recombinant human IL-2 was used as the standard.
# [7] = system: CD8+ T-cytotoxic/suppressor cells; conditions: week 12
# Method: as §3, §4, §5, §6
# [8] = averaged across all treatments and all periods
structure (smiles),measurement,setting,value
CC1=C[C@H](O)CC(C)(C)[C@H]1/C=C/C(C)=C/C=C/C(C)=C/C=C/C=C(C)/C=C/C=C(C)/C=C/C1=C(C)C[C@@H](O)CC1(C)C [lutein],"DTH response to PHA, treatment difference","[1]; week 6, 48 and 72 h",no significant treatment difference
same,DTH response to PHA,"[1]; week 6, 24 h post-injection",dose-related DTH response
same,DTH response to PHA vs unsupplemented dogs,"[1]; week 12, 20 mg lutein",significantly higher
same,DTH response to PHA,"[1]; week 12, 24, 48 and 72 h",general dose-dependent increase
same,lymphocyte proliferation in mouse splenocytes,mouse splenocytes,enhance lymphocyte proliferation
same,PWM-stimulated PBMC proliferative response,"[2]; 10 mg lutein, week 8",higher proliferative response
same,Con A-stimulated PBMC proliferation,"[2]; 10 mg lutein, weeks 8 and 12, 5 μg/mL Con A",higher PBMC proliferation
same,PWM-stimulated PBMC proliferation vs unsupplemented controls,"[2]; 20 mg lutein, week 8 and 12, both concentrations of PWM",significantly higher PBMC proliferation
same,PHA-stimulated PBMC proliferative response vs unsupplemented dogs,"[2]; 20 mg lutein, weeks 8 (10 pg/mL PHA) and 12 (2 and 10 μg/mL PHA), P<0.01",enhanced
same,Con A-stimulated PBMC proliferation,"[2]; 20 mg lutein, weeks 8 and 12, both concentrations of Con A",higher PBMC proliferation
same,PHA-stimulated PBMC proliferation,"[2]; 5 and 10 mg lutein, week 8, 10 μg/ml PHA",higher PBMC proliferation
same,spontaneous proliferation by unstimulated PBMC,[2]; no mitogen,did not significantly influence
same,PHA-stimulated PBMC response,[2]; weeks 0 and 4,no significant effect
same,"PWM-stimulated PBMC proliferation, treatment difference",[2]; weeks 0 and 4,no significant treatment difference
same,percentages of CD5+ cells vs unsupplemented controls,CD5+ total T cells,generally had higher percentages
same,Optimize vaccine recognition by the dog,immune system; Table 1,.check mark.
same,Optimize immune cell activity (B-cells),"immune system; Table 1, Lutein column",.check mark.
same,concentration of plasma IgM,IgM,not changed
same,NK cell cytotoxic activity,[3],did not significantly influence
same,specific lysis of target cells by PBMC,"[3]; averaged across all treatments and sampling periods, E:T 10:1",49.1±1.1%
same,plasma retinol concentration,[8],3.63 ± 0.14 µmol/L
same,plasma α-tocopherol concentration,[8],37 ± 2 µmol/L
same,plasma lutein+zeaxanthin vs unsupplemented animals,"dog, in vivo",significantly higher
same,influence on plasma retinol and α-tocopherol,lutein supplementation,did not influence
same,% CD4+ cells,CD4+ T-helper cells,higher
same,improvement of vaccine recognition,"[4]; FIG. 2, addition of lutein to the diet",≤ 32%
same,DTH response to vaccine,"[4]; week 6, 48 and 72 h post-injection",dose-related
same,DTH response to vaccine,"[4]; week 6, 24 h",not significant
same,DTH response to vaccine,[4]; week 12,no significant dietary effect
same,plasma TBARS activity,[5]; averaged across all treatments and periods,95.8±0.1 nmol MDA/L
same,effect on plasma TBARS activity,[5]; lutein supplementation,did not significantly affect
same,% MHC class II cell populations vs unsupplemented dogs,[6],elevated
same,plasma IgG,"IgG; 5 mg lutein, week 16, after revaccination on week 15, P<0.05",higher
same,plasma IgG,"IgG; 20 mg lutein, week 17, after revaccination on week 15",higher
same,CD21+ B cell population,CD21+ B cells,did not significantly influence
same,concentrations of IL-2 in culture medium,"IL-2; averaged throughout the study, all treatments",15.7 ± 0.4 ng/mL
same,production of IL-2 by PHA-stimulated PBMC,IL-2; throughout the experimental period,did not differ significantly
same,CD8+ population,[7],not influenced by the diet
